Laboratory results: US20240164378A1, “SYNERGISTIC PLANT GROWTH STIMULANT COMPOSITIONS OF POTASSIUM MONO/DI-FORMATE WITH CARBOXYLIC ACIDS” (FERTIS INDIA PVT. LTD., priority 2021, published 2024)

Experiments:
[1] = test system: paddy grains; assay: Total phenol estimation in paddy grains; format: in vivo; conditions: treatment applied with farmer practice (NPK)
[2] = test system: paddy grains; assay: Total protein content in paddy grains; format: in vivo; conditions: treatment applied with farmer practice (NPK)

| Compound | Total phenol Conc ppm in paddy grains [1] | % of Protein (total protein content in paddy grains) [2] |
| --- | --- | --- |
| C=C1C[C@]23C[C@@]1(O)CC[C@H]2[C@@]12C=C[C@H](O)[C@@](C)(C(=O)O1)[C@H]2[C@@H]3C(=O)O [Gibberellic acid] | 16.7 ppm | 0.008% |
| O=CO.O=C[O-].[K+] [Potassium diformate] | 19.97 ppm | 0.012% |
| CC1=CC(=O)CC(C)(C)[C@@]1(O)/C=C/C(C)=C\C(=O)O [Abscisic acid] | 18.78 ppm | 0.008% |
| COc1ccc2[nH]cc(CCNC(C)=O)c2c1 [Melatonin] | 17.9 ppm |  |
| O=C[O-].[K+] [Potassium formate] | 19.88 ppm | 0.011% |
